Measurements reported in ChEMBL document CHEMBL5728026, “Indole derivative used as CRTH2 inhibitor” (2020).

Molecular target: T1, Prostaglandin D2 receptor 2 (Homo sapiens, UniProt Q9Y5Y4)
T1 sequence (Q9Y5Y4 whole entry): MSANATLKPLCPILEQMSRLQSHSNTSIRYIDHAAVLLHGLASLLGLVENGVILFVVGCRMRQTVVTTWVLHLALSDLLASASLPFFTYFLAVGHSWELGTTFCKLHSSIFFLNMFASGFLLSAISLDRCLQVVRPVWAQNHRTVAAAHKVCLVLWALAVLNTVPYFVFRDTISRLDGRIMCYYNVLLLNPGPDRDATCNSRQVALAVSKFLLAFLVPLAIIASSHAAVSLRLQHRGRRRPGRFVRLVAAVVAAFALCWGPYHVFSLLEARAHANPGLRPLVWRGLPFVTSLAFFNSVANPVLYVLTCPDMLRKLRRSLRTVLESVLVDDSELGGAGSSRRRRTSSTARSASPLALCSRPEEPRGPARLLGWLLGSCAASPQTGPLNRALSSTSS
Test: Biological Activity Assay: Experimental Method:PathHunter CHO-K1 CRTH2 β-arrestin cells (DiscoverX, catalogue number 93-0291C2) grew under standard conditions, and were inoculated into a white-wall 384-well microplate at a density of 5,000 cells/well. 20 μL of Cell Plating Reagent 1 was used in each well. Before the test, the cells were incubated overnight at 37° C./5% CO2. A test compound was serially diluted in DMSO with a dilution factor of 3-fold to give 8 concentrations of the test compound. Shortly before the test, the serially diluted test compound was further diluted with the test buffer to 5 times of the test concentration. 5 μL of the further diluted test compound was added to the cells, and the cells were incubated for 30 min at 37° C. The concentration of the solvent was 1%. 5 μL of 6×EC80 agonist (PGD2) buffer was added to the cells, and the cells were incubated for 90 min at 37° C. Measured signals were generated by one-time addition of 15 μL (50% v/v) of PathHunter detection mixture reagent and subsequent one-hour incubation. The microplate was read through the chemiluminescent signals of PerkinElmer Envision™ reader. Biological activity of the test compound was analyzed by CBIS data analysis suite (ChemInnovation, CA), and was denoted as IC50 value.

| Structure (SMILES) | IC50 |
| --- | --- |
| Cc1c(Cc2ccc3c(c2)C(F)(F)CCS3(=O)=O)c2cc(F)ccc2n1Cc1nn[nH]n1 | > 1000 nM |
| Cc1c(Cc2ccc3c(c2)C(F)(F)CN(C)S3(=O)=O)c2cc(F)ccc2n1CC(=O)O | < 100 nM |
| Cc1c(Cc2ccc3c(c2)CCS3(=O)=O)c2cc(NC(=O)C3CC3)ccc2n1CC(=O)O | > 1000 nM |
| Cc1c(C2=CS(=O)(=O)c3cc(Cl)ccc32)c2cc(F)ccc2n1CC(=O)O | < 100 nM |
| CC1=Nc2cc(Cc3c(C)n(CC(=O)O)c4ccc(F)cc34)ccc2S(=O)(=O)N1 | < 100 nM |
| Cc1c(Cc2ccc3c(c2)C(C)(C)CS3(=O)=O)c2cc(F)ccc2n1CC(=O)O | < 100 nM |
| Cc1c(C2=CS(=O)(=O)c3ccccc32)c2cc(F)ccc2n1CC(=O)O | < 100 nM |
| O=C(O)Cn1c(-c2ccccc2)c(Cc2ccc3c(c2)CCS3(=O)=O)c2ccccc21 | > 1000 nM |
| Cc1c(C2=CS(=O)(=O)c3cc(-c4cc(F)cc(Cl)c4)ccc32)c2cc(F)ccc2n1CC(=O)O | < 100 nM |
| Cc1c(Cc2ccc3c(c2)N(C)CN(C)S3(=O)=O)c2cc(F)ccc2n1CC(=O)O | < 100 nM |
| Cc1c(Cc2ccc3c(c2)N=CN(C)S3(=O)=O)c2cc(F)ccc2n1CC(=O)O | < 100 nM |
| Cc1c(Cc2ccc3c(c2)C(F)(F)CCS3(=O)=O)c2cnccc2n1CC(=O)O | > 1000 nM |
| Cc1c(Cc2ccc3c(c2)CCS3(=O)=O)c2ccc(C(F)(F)F)cc2n1CC(=O)O | > 1000 nM |
| Cc1c(Cc2ccc3c(c2)C(F)(F)CCS3(=O)=O)c2cccnc2n1CC(=O)O | > 1000 nM |
| Cc1c(Cc2cc3c(cc2C(F)(F)F)S(=O)(=O)N(C)CN3C)c2cc(F)ccc2n1CC(=O)O | < 100 nM |
| Cc1c(C2=CCS(=O)(=O)c3ccccc32)c2cc(F)ccc2n1CC(=O)O | < 100 nM |
| Cc1c(C2=CS(=O)(=O)c3ccc(F)cc32)c2cc(F)ccc2n1CC(=O)O | > 1000 nM |
| Cc1c(Cc2ccc3c(c2)C(F)(F)CCS3(=O)=O)c2cc(F)ccc2n1CC(=O)O | < 100 nM |
| Cc1c(C2=CS(=O)(=O)c3cc(C(F)(F)F)ccc32)c2cc(F)ccc2n1CC(=O)O | < 100 nM |
| Cc1c(Cc2ccc3c(c2)CNS3(=O)=O)c2cc(F)ccc2n1CC(=O)O | < 100 nM |
| Cc1c(C2=CS(=O)(=O)c3ccccc32)c2ccc(Cl)cc2n1CC(=O)O | < 100 nM |
